Tested on: differentiated thyroid cancer patients
Assay: Best overall response / tumor response in differentiated thyroid cancer patients treated in phase II with E7080, by tumor mutation status
Assay type: in vivo, human
Source text: This experiment was directed at identifying amino acid mutations that are useful in predicting whether subjects respond to treatment with E7080 using three criteria of response: best overall response, tumor shrinkage, and progression free survival.
Tissue samples were obtained at surgery before the patients had received any therapy comprising E7080 and were routinely processed with formalin fixed, paraffin embedded tissues (FFPE). The protocol that was used was approved by the institutional review board, and informed consent was obtained from each subject. Tumor tissue samples from 27 patients, for which tissues were available, were used for mutation analysis. DNA was isolated from FFPE tumor blocks collected from patients participating in the trial. Genomic DNA was extracted from two to five 10 micron unstained sections by deparaffinization and Qiagen DNA Mini Kit Tissue Protocol with minor modification. For mutation detection, the SEQUENOM® (San Diego, Calif.) platform and the OncoCarta™ Panel v1.0 and OncoCarta™ Panel v3.0 were used (see, www.sequenom.com/Files/Genetic-Analysis—Graphics/All-Application—PDFs/AssayExplorer2010_1110-Web/). Sequenom's OncoCarta™ Panels are a set of pre-designed and pre-validated assays for efficient mutation screening. The OncoCarta™ Panel v1.0 genes and the number of mutations (in parentheses) are: ABL1 (14); AKT1 (7); AKT2 (2); BRAF (25); CDK4 (2); EGFR (40); ERBB2 (9); FGFR1 (2); FGRF3 (7); FLT3 (3); HRAS (10); JAK2 (1); KIT (32); KRAS (16); MET (5); NRAS (19); PDGFRA (11); PIK3CA (14); and RET (6). The OncoCarta™ Panel v3.0 genes and the number of mutations (in parentheses) are: ABL1 (2) AKT1 (1); APC (12); BRAF (19); CDKN2A (7); CSF1R (6); CTTNB1 (28); EGFR (32); ERBB2 (2); FLT3 (3); HRAS (2); JAK3 (3); KIT (3); KRAS (5); MET (6); MLH1 (1); MYC (6); PDGFRA (11); PIK3CA (4); PTEN (14); RB1 (11); RET (13); SRC (1); STK11 (12); P53 (7); and VH1 (7). […]
DNA was amplified using the OncoCarta™ PCR primer pools, unincorporated nucleotides were inactivated by shrimp alkaline phosphatase (SAP), and a single base extension reaction was performed using extension primers that hybridize immediately adjacent to the mutations and a custom mixture of nucleotides. Salts were removed by the addition of a cation exchange resin. Multiplexed reactions were spotted onto the SpectroChipII, and mutations, if present, were resolved by MALDI-TOF on the Compact Mass Spectrometer (Sequenom®, San Diego, Calif.). The OncoCarta™ Panel v1.0 (Sequenom®, San Diego, Calif.) consists of 24 pools of primer pairs and 24 pools of extension primers, and has the capacity to detect 225 mutations in 19 genes. The OncoCarta™ Panel v 3.0 consists of 24 pools of primer pairs and 24 pools of extension primers, and has the capacity to detect 218 mutations in 26 genes. Each pool consists of 5-9 primer pairs in the PCR reaction. Two types of assays have been designed in the OncoCarta panel, referred to as simple and complex. The simple assays are those in which a single assay is able to detect the amino acid changes at that codon. The complex assays are those that require more than one assay to identify codon changes or deletions and insertion, and thus are able to detect multiple different amino acid substitutions or deletions. An example of a complex assay involves the use of the KRAS_1 and KRAS_2 assays, which interrogates 2 different nucleotide positions within codon 12 and together identify all codon 12 amino acid changes. In the KRAS G12R mutation, the mutant allele has the codon CGT (Arginine) in contrast to the wild type allele which has the GGT (Glycine) codon. […]

[1] = BRAF.KRAS.NRAS (any of gene) MU
[2] = BRAF.KRAS.NRAS (any of gene) WT
[3] = BRAF.KRAS.NRAS.VHL (any of gene) MU
[4] = BRAF.KRAS.NRAS.VHL (any of gene) WT

## COc1cc2nccc(Oc3ccc(NC(=O)NC4CC4)c(Cl)c3)c2cc1C(N)=O [E7080, 4-(3-chloro-4-(cyclopropylaminocarbonyl)aminophenoxy)-7-methoxy-6-quinolinecarboxamide]
[1]
  Number of patients with BOR PD: 0
  Number of patients with BOR PR: 10
  Number of patients with BOR SD: 1
[2]
  Number of patients with BOR PD: 2
  Number of patients with BOR PR: 3
  Number of patients with BOR SD: 6
[3]
  Number of patients with BOR PD: 1
  Number of patients with BOR PR: 10
  Number of patients with BOR SD: 1
[4]
  Number of patients with BOR PD: 1
  Number of patients with BOR PR: 3
  Number of patients with BOR SD: 6
BRAF.KRAS.VHL (any of gene) MU
  Number of patients with BOR PD: 2
  Number of patients with BOR PR: 8
  Number of patients with BOR SD: 0
BRAF.KRAS.VHL (any of gene) WT
  Number of patients with BOR PD: 0
  Number of patients with BOR PR: 8
  Number of patients with BOR SD: 5
BRAF.NRAS (any of gene) MU
  Number of patients with BOR PD: 0
  Number of patients with BOR PR: 8
  Number of patients with BOR SD: 1
BRAF.NRAS (any of gene) WT
  Number of patients with BOR PD: 2
  Number of patients with BOR PR: 5
  Number of patients with BOR SD: 6
BRAF.VHL (any of gene) MU
  Number of patients with BOR PD: 2
  Number of patients with BOR PR: 6
  Number of patients with BOR SD: 0
BRAF.VHL (any of gene) WT
  Number of patients with BOR PD: 0
  Number of patients with BOR PR: 10
  Number of patients with BOR SD: 5
KRAS.NRAS (any of gene) MU
  Number of patients with BOR PD: 0
  Number of patients with BOR PR: 8
  Number of patients with BOR SD: 0
KRAS.NRAS (any of gene) WT
  Number of patients with BOR PD: 2
  Number of patients with BOR PR: 5
  Number of patients with BOR SD: 7
KRAS.NRAS.VHL (any of gene) MU
  Number of patients with BOR PD: 1
  Number of patients with BOR PR: 8
  Number of patients with BOR SD: 0
KRAS.NRAS.VHL (any of gene) WT
  Number of patients with BOR PD: 1
  Number of patients with BOR PR: 5
  Number of patients with BOR SD: 7
Patients with either an NRAS or KRAS mutation
  Patients with partial response (PR): 8 out of 8
Patients without mutations in NRAS and KRAS
  Patients with partial response (PR): 5 out of 14
Phase II
  Clinical outcome in differentiated thyroid cancer patients: Tumor response and prolonged disease stabilization were observed

Reference: patent US9945862B2, “Biomarkers for predicting and assessing responsiveness of thyroid and kidney cancer subjects to lenvatinib compounds” (Eisai R&D Management Co., Ltd., priority 2011, dated 2018)
